Measurements: patent US20210379184A1, “Deep Eutectic Solvent Platform for Oral Pharmaceutical Formulations” (SeraNovo B.V., priority 2018, published 2021)
Converted amounts (≈) assume the structure as drawn.

Experiment: physchem
From the text: The DES systems contained propylene glycol, a specific polymer solubilizer, and one or more (NA)DES constituents.

SMILES: CC(=O)N1CCN(c2ccc(OCC3COC(Cn4ccnc4)(c4ccc(Cl)cc4Cl)O3)cc2)CC1 (centres unmarked) [Ketoconazole]
- solubility (20 °C, pH 7, water): 0.09 µg/mL (≈ 0.169 µM)

SMILES: CC(C)Cc1ccc(C(C)C(=O)O)cc1 (centres unmarked) [Ibuprofen]
- factor by which the concentration solubilized in DES exceeds the solubility of the drug in water: at least 100
- solubility (20 °C, pH 7, water): 21 µg/mL (≈ 102 µM)

SMILES: CCC(C)n1ncn(-c2ccc(N3CCN(c4ccc(OCC5COC(Cn6cncn6)(c6ccc(Cl)cc6Cl)O5)cc4)CC3)cc2)c1=O (centres unmarked) [Itraconazole]
- Concentration solubilized API (mg/mL): up to 200 mg/mL
- factor by which the concentration solubilized in DES exceeds the solubility of the drug in water: ≤ 10.000.000
- solubility (20 °C, pH 7, water): 0.004 µg/mL (≈ 0.00567 µM)
- solubility (organic solvent or mixture, solubility of itraconazole): < 25000 µg/mL

SMILES: NC(=O)N1c2ccccc2C=Cc2ccccc21 [Carbamazepine]
- solubility (20 °C, pH 7, water): 17 µg/mL (≈ 72 µM)
- solubility (organic solvent or mixture, Concentration solubilized API (mg/mL)): > 100000 µg/mL

SMILES: COc1ccccc1OCCNCC(O)COc1cccc2[nH]c3ccccc3c12 (centres unmarked) [Carvedilol]
- solubility (20 °C, pH 7, water): 0.6 µg/mL (≈ 1.48 µM)

SMILES: O=C(O)c1ccccc1Nc1cccc(C(F)(F)F)c1 [Flufenamic Acid]
- solubility (20 °C, pH 7, water): 9.1 µg/mL (≈ 32.4 µM)
